Measurements: patent EP0655506B1 (priority 1994, dated 1995)
Where two headings read alike, the source gives them in different places.

Tests used:
T7 DNA polymerase = T7 DNA polymerase (Escherichia phage T7, UniProt P00581); details: '(for ddATP)' stands at the end of the sentence, cited from earlier work
[1] = molecular target: T1, T7 DNA polymerase (28 amino acid deletion in the exonuclease domain, complexed with thioredoxin) (Escherichia phage T7, UniProt P00581, DEL118-145); experiment: Inhibition of DNA synthesis on synthetic Primer-Template A, competition of dATP and ddATP (Example 9); format: biochemical, bacteriophage T7; details: in the presence of 10 µM dATP, 37°C, read-out: [ddATP] for 50% inhibition
T1 construct: made in house; host or cells: strain that produces E. coli thioredoxin (lac promoter)
Experimental: (§1) In this example the competition between a dNTP and a ddNTP is assayed for use at a single site in a synthetic primer-template. This assay differs from the others in that it limits the comparison of the use of the two substrates to a single site, avoiding the complication of sequence-specific variability in discrimination. […]
(§2) Each reaction mixture contains 25 pmoles each of primer and template. […] The mixtures are incubated at 37°C for 1 min (70°C for thermophilic DNA polymerases), and the reactions are initiated by the addition of 5 µl aliquots (0.01 to 1 unit) of the DNA polymerase being analyzed diluted in 20 mM TrisHCl, pH 7.5, 10 mM 2-mercaptoethanol and 0.05% bovine serum albumin. […] The disks are then dried under a heat lamp and counted in a scintillation counter in 5 ml of fluor (Opti-Fluor O, Packard). From the amount of radioactivity on each disk, the amount […] incorporated was determined. […]
(§3) All reactions are carried out with a constant amount of the DNA polymerase being analyzed; the amount of DNA polymerase should be sufficient to replicate 50% of the total dCMP residues in the single-stranded region of the template in the 10 min incubation in the presence of 10 µM dATP and the absence of ddATP. […]

T7 DNA polymerase Y526F = molecular target: T2, T7 DNA polymerase Y526F (Escherichia phage T7, UniProt P00581, DEL118-145/Y526F); experiment: as above; format: biochemical, bacteriophage T7; details: in the presence of 10 µM dATP, 37°C, read-out: [ddATP] for 50% inhibition
T2 construct: made in house; host or cells: strain that produces E. coli thioredoxin (lac promoter)
Experimental: as §1, §2, §3

[2] = molecular target: T3, HIV reverse transcriptase, change of Glu 89 to Glycine (Human immunodeficiency virus type 1 group M subtype B, UniProt P04585, E676G); details: relative to the unmutated enzyme; cited from earlier work
T3 construct: glu-89 of human immunodeficiency virus type 1 reverse transcriptase

Structure (SMILES): Nc1ncnc2c1ncn2[C@H]1CC[C@@H](COP(=O)(O)OP(=O)(O)OP(=O)(O)O)O1 [ddATP]
- discrimination (T7 DNA polymerase; in the presence of manganese): 1
- discrimination (T7 DNA polymerase; magnesium): 3.7
- IC50 [1]: ~30 µM
- IC50 (T7 DNA polymerase Y526F): > 500 µM

Structure (SMILES): Nc1nc2c(ncn2[C@H]2CC[C@@H](COP(=O)(O)OP(=O)(O)OP(=O)(O)O)O2)c(=O)[nH]1 [ddGTP]
- ddGTP required to obtain same extent of inhibition [2]: about 10 times more
